# Experimental data: PubChem BioAssay (NCI)
#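 96-well plates; 48 h exposure; 5 concentrations. Endpoints by linear interpolation between flanking doses. Not reached: highest tested concentration assigned. Here, GI50 denotes the concentration required for 50% inhibition of growth. Definition used: TGI = concentration required for complete inhibition of growth.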
# What was measured:
# Experiment in all cases: NCI anticancer screen, dose series, 48 h
# [1] = system: RPMI-8226 leukemia
# [2] = system: ACHN renal
# [3] = system: HCC-2998 colon
# [4] = system: MDA-MB-435
# [5] = system: MOLT-4 leukemia
# [6] = system: UO-31 renal
# [7] = system: UACC-257 melanoma
# [8] = system: COLO 205 colon
# [9] = system: HS 578T breast
# [10] = system: SR leukemia
# [11] = system: MCF7 breast
# [12] = system: K-562 leukemia
# [13] = system: OVCAR-8 ovarian
# [14] = system: SF-295 CNS
# [15] = system: OVCAR-5 ovarian
# [16] = system: OVCAR-3 ovarian
# [17] = system: MALME-3M melanoma
# [18] = system: NCI-H460 lung
# [19] = system: CCRF-CEM leukemia
# [20] = system: EKVX NSCLC
# [21] = system: HOP-62 NSCLC
# [22] = system: M14 melanoma
# [23] = system: SNB-75 CNS
# [24] = system: SF-268 CNS
# [25] = system: NCI-H23 lung
# [26] = system: LOX IMVI melanoma
# [27] = system: SK-OV-3 ovarian
# [28] = system: SNB-19 CNS
# [29] = system: U251 CNS
# [30] = system: HT29 colon
# [31] = system: NCI-H522 lung
# [32] = system: HOP-92 NSCLC
# [33] = system: HCT-116 colon
# [34] = system: SF-539 CNS
# [35] = system: PC-3 prostate
# [36] = system: DU-145 prostate
# [37] = system: 786-0 renal
# [38] = system: MDA-MB-231 breast
# [39] = system: SK-MEL-28 melanoma
# [40] = system: SW-620 colon
# [41] = system: CAKI-1 renal
# [42] = system: BT-549 breast
# [43] = system: OVCAR-4 ovarian
# [44] = system: KM12 colon
# [45] = system: SN12C renal
# [46] = system: HCT-15 colon
# [47] = system: HL-60(TB) leukemia
# [48] = system: NCI-H226 lung
# [49] = system: A549 NSCLC
# [50] = system: TK-10 renal
# [51] = system: A498 renal
# [52] = system: UACC-62 melanoma
# [53] = system: RXF 393 renal
# [54] = system: T-47D breast
# [55] = system: SK-MEL-5 melanoma
# [56] = system: IGROV1 ovarian
# [57] = system: SK-MEL-2 melanoma
# [58] = system: NCI/ADR-RES ovarian
smiles,measurement,setting,value
O/N=C(\C=N\O)c1ccc2c(c1)Sc1ccccc1O2,TGI,[1],38.9 µM
same,TGI,[2],42.8 µM
same,TGI,[3],41.9 µM
same,TGI,[4],33.9 µM
same,TGI,[5],32.7 µM
same,TGI,[6],54 µM
same,TGI,[7],42 µM
same,TGI,[8],54.3 µM
same,TGI,[9],> 100 µM
same,TGI,[10],75.9 µM
same,TGI,[11],40.6 µM
same,TGI,[12],85.4 µM
same,TGI,[13],74.8 µM
same,TGI,[14],46.3 µM
same,TGI,[15],87.5 µM
same,TGI,[16],48.8 µM
same,TGI,[17],72.5 µM
same,TGI,[18],60.5 µM
same,TGI,[19],7.43 µM
same,TGI,[20],48.9 µM
same,TGI,[21],36.8 µM
same,TGI,[22],39.6 µM
same,TGI,[23],50.3 µM
same,TGI,[24],38.4 µM
same,TGI,[25],60.3 µM
same,TGI,[26],> 100 µM
same,TGI,[27],40.2 µM
same,TGI,[28],67.8 µM
same,TGI,[29],98.7 µM
same,TGI,[30],49.7 µM
same,TGI,[31],8.17 µM
same,TGI,[32],36.8 µM
same,TGI,[33],45.7 µM
same,TGI,[34],82.4 µM
same,TGI,[35],66.1 µM
same,TGI,[36],> 100 µM
same,TGI,[37],38.6 µM
same,TGI,[38],38.4 µM
same,TGI,[39],75.3 µM
same,TGI,[40],78.7 µM
same,TGI,[41],61.1 µM
same,TGI,[42],40.7 µM
same,TGI,[43],74.2 µM
same,TGI,[44],> 100 µM
same,TGI,[45],37.1 µM
same,TGI,[46],75.2 µM
same,TGI,[47],59.8 µM
same,TGI,[48],69.6 µM
same,TGI,[49],> 100 µM
same,TGI,[50],84.1 µM
same,TGI,[51],41.6 µM
same,TGI,[52],37.7 µM
same,TGI,[53],36 µM
same,TGI,[54],74.7 µM
COc1ccc(Nc2c3c4c(cccc4[nH]c2=O)C(=O)c2ccccc2-3)cc1,GI50,[2],0.0406 µM
same,TGI,[2],> 100 µM
same,GI50,[3],0.0221 µM
same,TGI,[3],0.0482 µM
same,GI50,[4],0.0335 µM
same,TGI,[4],> 100 µM
same,GI50,[5],0.558 µM
same,GI50,[6],0.319 µM
same,TGI,[6],> 100 µM
same,GI50,[7],1.21 µM
same,TGI,[7],> 92.4 µM
same,GI50,[8],0.0191 µM
same,TGI,[8],0.0446 µM
same,GI50,[55],< 0.0172 µM
same,TGI,[55],0.0451 µM
same,GI50,[9],0.0238 µM
same,TGI,[9],> 45.9 µM
same,GI50,[11],< 0.0182 µM
same,TGI,[11],21.2 µM
same,GI50,[13],0.0367 µM
same,TGI,[13],> 100 µM
same,GI50,[56],0.0365 µM
same,TGI,[56],> 100 µM
same,GI50,[14],< 0.0174 µM
same,TGI,[14],< 0.0275 µM
same,GI50,[15],0.0479 µM
same,TGI,[15],> 90.1 µM
same,GI50,[16],< 0.0158 µM
same,TGI,[16],< 0.0257 µM
same,GI50,[17],0.0663 µM
same,TGI,[17],48.3 µM
same,GI50,[18],< 0.01 µM
same,TGI,[18],10.1 µM
same,GI50,[20],0.0552 µM
same,TGI,[20],> 100 µM
same,GI50,[21],0.0457 µM
same,TGI,[21],> 100 µM
same,GI50,[22],< 0.0192 µM
same,TGI,[22],> 100 µM
same,GI50,[23],0.0278 µM
same,TGI,[23],> 72.1 µM
same,GI50,[24],0.0373 µM
same,TGI,[24],18.6 µM
same,GI50,[25],< 0.0185 µM
same,TGI,[25],> 38.9 µM
same,GI50,[26],0.0239 µM
same,TGI,[26],> 100 µM
same,GI50,[27],0.0492 µM
same,TGI,[27],> 56.3 µM
same,GI50,[57],0.048 µM
same,TGI,[57],> 100 µM
same,GI50,[28],0.684 µM
same,TGI,[28],> 100 µM
same,GI50,[29],0.0434 µM
same,TGI,[29],> 68.9 µM
same,GI50,[30],< 0.01 µM
same,GI50,[31],< 0.0175 µM
same,GI50,[32],0.332 µM
same,TGI,[32],> 100 µM
same,GI50,[33],< 0.01 µM
same,TGI,[33],0.104 µM
same,GI50,[34],0.0206 µM
same,TGI,[34],0.0687 µM
same,GI50,[58],0.0227 µM
same,TGI,[58],0.0526 µM
same,GI50,[35],0.0473 µM
same,TGI,[35],> 100 µM
same,GI50,[36],< 0.0181 µM
same,TGI,[36],0.0467 µM
same,GI50,[37],0.0334 µM
same,TGI,[37],19.6 µM
same,GI50,[38],0.0451 µM
same,GI50,[39],11 µM
same,TGI,[39],> 100 µM
same,GI50,[40],< 0.0203 µM
same,TGI,[40],> 100 µM
same,GI50,[41],< 0.0218 µM
same,TGI,[41],1.23 µM
same,GI50,[42],0.0268 µM
same,TGI,[42],0.0708 µM
same,GI50,[43],0.971 µM
same,TGI,[43],> 100 µM
same,GI50,[44],< 0.0182 µM
same,TGI,[44],0.181 µM
same,GI50,[45],0.0544 µM
same,TGI,[45],> 100 µM
same,GI50,[46],0.0271 µM
same,TGI,[46],> 100 µM
same,GI50,[47],0.0188 µM
same,TGI,[47],0.0393 µM
same,GI50,[48],1.2 µM
same,TGI,[48],> 100 µM
same,GI50,[49],< 0.0221 µM
same,TGI,[49],> 32.1 µM
same,GI50,[50],< 0.0225 µM
same,TGI,[50],21.3 µM
same,GI50,[51],< 0.0192 µM
same,GI50,[52],0.031 µM
same,TGI,[52],> 100 µM
same,GI50,[53],0.0472 µM
same,TGI,[53],> 100 µM
same,GI50,[54],38.4 µM
same,TGI,[54],> 100 µM
N=C(N)c1ccc(-c2ccc(-c3cc(Cl)cc(Cl)c3)s2)cc1,GI50,[10],0.284 µM
same,TGI,[10],> 100 µM
same,GI50,[47],1.07 µM
same,TGI,[47],2.8 µM
